# Several values for one entry are separate records, joined by “and”; a condition that tells them apart may be missing. Equal values may be shown once. Read-outs that look alike come from different tables or passages of the source.
# T1: MTH0830 RFAP synthase D19N variant (Methanothermobacter thermautotrophicus, UniProt O26918, D19N)
# T1 sequence (O26918 1-329 D19N): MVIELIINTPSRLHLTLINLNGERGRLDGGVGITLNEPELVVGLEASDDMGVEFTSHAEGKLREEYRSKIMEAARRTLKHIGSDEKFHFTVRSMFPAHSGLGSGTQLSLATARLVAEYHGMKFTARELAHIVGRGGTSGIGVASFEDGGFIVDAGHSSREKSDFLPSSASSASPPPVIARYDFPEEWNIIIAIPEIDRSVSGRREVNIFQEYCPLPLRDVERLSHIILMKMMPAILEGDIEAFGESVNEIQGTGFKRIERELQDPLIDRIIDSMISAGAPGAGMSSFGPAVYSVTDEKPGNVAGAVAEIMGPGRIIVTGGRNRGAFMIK
# T2: MTH0830 RFAP synthase R26K variant (Methanothermobacter thermautotrophicus, UniProt O26918, R26K)
# T2 sequence (O26918 1-329 R26K): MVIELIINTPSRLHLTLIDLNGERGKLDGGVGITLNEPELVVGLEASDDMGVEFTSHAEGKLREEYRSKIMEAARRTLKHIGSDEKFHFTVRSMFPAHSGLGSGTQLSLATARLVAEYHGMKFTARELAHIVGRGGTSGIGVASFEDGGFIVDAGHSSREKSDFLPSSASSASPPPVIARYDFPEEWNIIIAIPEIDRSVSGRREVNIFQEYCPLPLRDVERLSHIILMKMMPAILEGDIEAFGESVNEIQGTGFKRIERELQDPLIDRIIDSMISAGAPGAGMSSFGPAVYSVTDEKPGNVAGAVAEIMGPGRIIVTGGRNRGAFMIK
# T3: wild-type M. thermautotrophicus RFAP synthase (MTH0830) produced in E. coli (Methanothermobacter thermautotrophicus, UniProt O26918)
# T3 sequence (O26918 1-329): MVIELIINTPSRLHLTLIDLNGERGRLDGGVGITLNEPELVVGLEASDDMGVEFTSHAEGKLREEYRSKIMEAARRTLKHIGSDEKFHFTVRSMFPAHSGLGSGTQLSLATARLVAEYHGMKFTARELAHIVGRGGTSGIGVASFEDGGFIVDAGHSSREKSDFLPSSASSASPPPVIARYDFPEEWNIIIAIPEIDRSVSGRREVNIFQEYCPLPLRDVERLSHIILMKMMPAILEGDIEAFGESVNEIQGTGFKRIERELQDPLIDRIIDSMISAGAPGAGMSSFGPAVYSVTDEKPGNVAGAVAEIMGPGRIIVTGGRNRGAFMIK
# Experiments:
# [1] = molecular target: wild-type MTH0830 RFAP synthase (Methanothermobacter thermautotrophicus, UniProt O26918); assay: Isothermal titration calorimetry, wild-type enzyme; type: binding; conditions: ITC, 35 °C
# Method: (§1) The ITC conditions previously established for M. jannaschii RFAP synthase were modified for the RFAP synthase from M. thermautotrophicus. Partially purified wild-type (heat-treated at 65 °C) and variant (heat-treated at 50 °C) RFAP synthases (2–5 mL) were dialyzed against two changes of buffer (250 mL each of 50 mM Tris, 100 mM NaCl, pH 7.6). […] All ITC measurements were carried out using a NANO-ITC isothermal titration calorimeter (TA Instruments, New Castle, DE).
# (§2) Following an 1800 s delay, 10 injections of 5 µL of PRPP each were added every 240 seconds with stirring at 300 rpm.
# [2] = molecular target: T1, MTH0830 RFAP synthase D19N variant; assay: Isothermal titration calorimetry, D19N variant; type: binding
# Method: as §1, §2
# [3] = molecular target: T2, MTH0830 RFAP synthase R26K variant; assay: Isothermal titration calorimetry, R26K variant; type: binding
# Method: as §1, §2
# [4] = molecular target: RFAP synthase from M. jannaschii; parameters: method as in PMID 15262968; conditions: read-out: binding constant (KD) for PRPP; cited from earlier work
# [5] = molecular target: T3, wild-type M. thermautotrophicus RFAP synthase (MTH0830) produced in E. coli; assay: RFAP synthase enzyme assay (azo-dye derivative of RFAP), wild-type recombinant enzyme; type: biochemical; conditions: for Vmax / Km: 8.8 mM PRPP; for Km: read-out: KM for pABA
# Method: RFAP synthase activity was determined by producing the azo-dye derivative of the product RFAP as described previously [1],[17]. […] From this point on, the amount of enzyme used in activity assays was within the linear range of 8 to 12 µg. […] All assays were carried out under optimal enzymatic conditions in 70 mM PIPES (pH 6.8), 2 mM DTT at 70 °C for 1 h.
# [6] = tested on: RFAP synthase from M. thermophila; conditions: read-out: apparent KM for pABA; cited from earlier work
# [7] = tested on: RFAP synthase from M. jannaschii; parameters: method as in PMID 9698382, PMID 15262968; conditions: read-out: apparent KM for pABA; cited from earlier work
# [8] = two acidic pKa values; cited from earlier work
# [9] = molecular target: Methanothermobacter thermautotrophicus β-ribofuranosylaminobenzene 5′-phosphate (RFAP) synthase, wild type, recombinant (Methanothermobacter thermautotrophicus); assay: SEC; Superdex 75 gel filtration column in 50 mM TES, 150 mM KCl, 2 mM DTT, ambient temperature; enzyme eluted after 19 min, corresponding to 68.7 kDa; subunit size from SDS-PAGE
# [10] = substrate: Nc1ccc(C(=O)O)cc1; assay: purified protein, by the assay type
# [11] = substrate: Nc1ccc(C(=O)O)cc1; assay: RFAP synthase enzyme assay, R26K variant; type: biochemical, Methanothermobacter thermautotrophicus; conditions: other: 50 °C, 3 h, pH 6.8, 8.8 mM PRPP
# Method: RFAP synthase activity was determined by producing the azo-dye derivative of the product RFAP as described previously,[17]. […] From this point on, the amount of enzyme used in activity assays was within the linear range of 8 to 12 µg. […] All assays were carried out under optimal enzymatic conditions in 70 mM PIPES (pH 6.8), 2 mM DTT at 70 °C for 1 h.
# Due to the inability of the variants to function at 70 °C, the enzymatic assays comparing variant and wild-type kinetics were run in 70 mM PIPES (pH 6.8) with 2 mM DTT at 50 °C for three hours using a single time-point assay. This is the time period over which the enzyme activities were linear at the lower temperature of 50 °C. For these kinetic studies, the wild-type enzyme was purified in the same manner as the variants and was also examined at 50 °C for three hours.
molecule,measurement,setting,value
"O=P(O)(O)OC[C@H]1OC(OP(=O)(O)OP(=O)(O)O)[C@H](O)[C@@H]1O (some centres unmarked) [PRPP, phosphoribosyl-pyrophosphate]",Kd,[1]; read-out: KD for PRPP,2100 ± 110 µM
same,Kd,[2],2000 ± 300 µM
same,Kd,[3],2400 ± 250 µM
same,Kd,[4],2000 µM
"Nc1ccc(C(=O)O)cc1 [pABA, p-aminobenzoic acid]",Vmax,"[5]; 50 °C, 3 h, pABA varied, partially purified",1.45 nmol/min/mg and 1.5 nmol/min/mg
same,Vmax,"[5]; 70 °C, pABA varied 181 µM to 36 mM",approximately 190 nmol/min/mg protein
same,fold higher KM compared to previous homologs,[5]; near neutral conditions versus homologs with pH optimum at 5.3,26 fold
same,Km,"[5]; 50 °C, 3 h, pH 6.8, partially purified without heat step",3.9 mM
same,Km,"[5]; 70 °C, pH 6.8, 1 h, 17.6 mM MgCl2, enzyme purified through Mono Q",4.5 mM
same,Kd,[1]; in presence of saturating PRPP,960 ± 650 µM
same,Km,[6],0.058 mM
same,Km,[7],0.15 mM
same,acidic pKa,[8],4.65 and 4.80
"Methanothermobacter thermautotrophicus β-ribofuranosylaminobenzene 5′-phosphate (RFAP) synthase, wild type, recombinant (enzyme)",stoichiometry N,[9],2
wild-type M. thermautotrophicus RFAP synthase (MTH0830) produced in E. coli (Methanothermobacter thermautotrophicus str. Delta H) (protein) MVIELIINTPSRLHLTLIDLNGERGRLDGGVGITLNEPELVVGLEASDDMGVEFTSHAEGKLREEYRSKIMEAARRTLKHIGSDEKFHFTVRSMFPAHSGLGSGTQLSLATARLVAEYHGMKFTARELAHIVGRGGTSGIGVASFEDGGFIVDAGHSSREKSDFLPSSASSASPPPVIARYDFPEEWNIIIAIPEIDRSVSGRREVNIFQEYCPLPLRDVERLSHIILMKMMPAILEGDIEAFGESVNEIQGTGFKRIERELQDPLIDRIIDSMISAGAPGAGMSSFGPAVYSVTDEKPGNVAGAVAEIMGPGRIIVTGGRNRGAFMIK,Km,"[10]; other: 50 °C, 3 h, pH 6.8, 8.8 mM PRPP, partially purified without heat step, 50.0 °C",3.9 mM
same,Km,"[10]; other: 70 °C, pH 6.8, 1 h, 8.8 mM PRPP, 17.6 mM MgCl2, enzyme purified through Mono Q, 70.0 °C",4.5 mM
same,Km,"[10]; other: enzymatic assays, summary of Figure 3 and Table 2, pH 6.8",4 mM
MTH0830 RFAP synthase R26K variant (Methanothermobacter thermautotrophicus str. Delta H; R26K) (protein) MVIELIINTPSRLHLTLIDLNGERGKLDGGVGITLNEPELVVGLEASDDMGVEFTSHAEGKLREEYRSKIMEAARRTLKHIGSDEKFHFTVRSMFPAHSGLGSGTQLSLATARLVAEYHGMKFTARELAHIVGRGGTSGIGVASFEDGGFIVDAGHSSREKSDFLPSSASSASPPPVIARYDFPEEWNIIIAIPEIDRSVSGRREVNIFQEYCPLPLRDVERLSHIILMKMMPAILEGDIEAFGESVNEIQGTGFKRIERELQDPLIDRIIDSMISAGAPGAGMSSFGPAVYSVTDEKPGNVAGAVAEIMGPGRIIVTGGRNRGAFMIK,Km,[11],38 mM
same,Vmax,[11],0.005 µmol/min/mg
MTH0830 RFAP synthase D19N variant (Methanothermobacter thermautotrophicus str. Delta H; D19N) (protein) MVIELIINTPSRLHLTLINLNGERGRLDGGVGITLNEPELVVGLEASDDMGVEFTSHAEGKLREEYRSKIMEAARRTLKHIGSDEKFHFTVRSMFPAHSGLGSGTQLSLATARLVAEYHGMKFTARELAHIVGRGGTSGIGVASFEDGGFIVDAGHSSREKSDFLPSSASSASPPPVIARYDFPEEWNIIIAIPEIDRSVSGRREVNIFQEYCPLPLRDVERLSHIILMKMMPAILEGDIEAFGESVNEIQGTGFKRIERELQDPLIDRIIDSMISAGAPGAGMSSFGPAVYSVTDEKPGNVAGAVAEIMGPGRIIVTGGRNRGAFMIK,Km,"[10]; other: 50 °C, 3 h, pH 6.8, 8.8 mM PRPP",12 mM

# Reference: PMC6787355, “Purification, kinetic characterization, and site-directed mutagenesis of Methanothermobacter thermautotrophicus RFAP Synthase Produced in Escherichia coli” (AIMS Microbiology, 2019)
